Laboratory results as given in US20240246918A1, “COMPOUNDS AND COMPOSITIONS AS EIF4E INHIBITORS AND THE USES THEREOF” (Ribometrix, Inc., priority 2022, published 2024).

Tests used:
human eIF4E protein = target: T1, human eIF4E protein (Homo sapiens, UniProt P06730); test: Biochemical competitive binding assay (TR-FRET competition, EDA-m7GDP-ATTO-647N probe); conditions: read-out: hEIF4E TR-FRET IC50
T1 construct: purchased Novus NBP-45314
Method in brief: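 His-tagged human eIF4E (4 nM) was preincubated with Eu-anti-His antibody (2.5 nM) and added to compound (11-point, 4-fold dilutions) for 15 min. Then 5 nM EDA-m7GDP-ATTO-647N was added for 15 min, in HEPES pH 7.5, 100 mM KCl. The 665/620 TR-FRET ratio was normalized to controls, and IC50 was taken from 4-parameter fits.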

[1] = system: COLO 205 colorectal tumor cells; test: Tumor cell viability inhibition assay (CellTiter-Glo 2.0, 72 hours); assay type: cell-based; conditions: Homo sapiens, COLO 205, 72 h, COLO 205 cell viability
Method in brief: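 COLO 205 cells (1500/well, RPMI-1640 + 10% FBS) exposed for 72 h to an 11-point, 4-fold dilution series; cellular ATP read by CellTiter-Glo 2.0 luminescence. Data normalized to DMSO and maximum-inhibition controls; IC50 from 4-parameter curve fit.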

[2] = system: cyclin D1 protein levels in COLO 205 cells; test: Cyclin D1 cellular inhibition assay (HTRF, 6 hours); assay type: cell-based; conditions: Homo sapiens, COLO 205, 6 h, 6 hours of compound treatment, Cyclin D1 protein levels by HTRF, read-out: COLO 205 6 h Cyclin D1 TR-FRET IC50
Procedure: The effect of compound treatment on cyclin D1 protein levels in COLO 205 cells was assessed, as follows. Test compound plates were prepared with a Tecan D300e Digital Dispenser as 11-point concentration-response curves with a final DMSO concentration of 1%. COLO 205 (ATCC, CCL-222) colorectal tumor cells were seeded to assay-ready plates in RPMI-1640 medium supplemented with 10% FBS at 20,000 cells in a volume of 6 microliters per well. After 6 hours of compound treatment, cells were lysed and Cyclin D1 protein levels were assessed by an HTRF assay (PerkinElmer #64CYCD1ITPEG), according to the manufacturer's protocol. Time-resolved fluorescence was measured using a Clariostar Plus microplate reader (BMG Labtech) or equivalent. After normalization to the average of DMSO control and maximum inhibition control wells, concentration-response data were plotted and standard 4-parameter curve fitting (GraphPad Prism v9.4.1) was utilized to determine IC50 values.

T1 sequence (P06730 whole entry): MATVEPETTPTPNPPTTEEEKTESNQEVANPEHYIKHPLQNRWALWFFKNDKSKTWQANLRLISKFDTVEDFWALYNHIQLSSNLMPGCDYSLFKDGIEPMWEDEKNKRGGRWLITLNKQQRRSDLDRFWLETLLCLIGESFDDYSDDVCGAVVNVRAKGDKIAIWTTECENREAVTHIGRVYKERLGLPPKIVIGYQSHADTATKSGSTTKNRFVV

Row | IC50 (human eIF4E protein) | IC50 [1] | IC50 [2] | SMILES
1 | < 0.1 µM | > 20 µM | > 20 µM | Cc1cc(-c2ccc(Cl)cc2OCCn2c(C)nc3c(c2=O)C[C@H](N(C)[C@H]2C[C@@](C)(O)C2)CC3)c2scc(C(=O)O)c2n1 (single isomer, unassigned) [Compound 229]
2 | < 0.1 µM | > 20 µM | > 20 µM | Cc1cc(-c2cc(Cl)ccc2OCCn2c(C)nc3c(c2=O)CC(N2CCC(OCCO)CC2)CC3)c2scc(C(=O)O)c2n1 (stereo not drawn) [Compound 208]
3 | < 0.1 µM | 5 to 20 µM | 5 to 20 µM | Cc1cc(-c2cc(Cl)ccc2OCCn2c(C)nc3c(c2=O)CC(N2CCc4ncncc4C2)CC3)c2scc(C(=O)O)c2n1 (stereo not drawn) [Compound 157]
4 | < 0.1 µM | < 5 µM | < 5 µM | Cc1cc(-c2cc(Cl)ccc2OCCn2c(C)nc3c(c2=O)CC(N2CCc4ncsc4C2)CC3)c2scc(C(=O)O)c2n1 (stereo not drawn) [Compound 164]
5 | < 0.1 µM | < 5 µM | < 5 µM | Cc1cc(-c2cc(Cl)ccc2OCCn2c(C)nc3c(c2=O)C[C@H](N2CCC[C@@]4(C2)CC4(F)F)CC3)c2scc(C(=O)O)c2n1 (single isomer, unassigned) [Compound 139]
6 | < 0.1 µM | < 5 µM | < 5 µM | Cc1cc(-c2cc(Cl)ccc2OCCn2c(C)nc3c(c2=O)C[C@@H](N2C[C@H]4CC(F)(F)[C@H]4C2)CC3)c2scc(C(=O)O)c2n1 (single isomer, unassigned) [Compound 148]
7 | < 0.1 µM | < 5 µM | < 5 µM | Cc1cc(-c2cc(Cl)ccc2OCCn2c(C)nc3c(c2=O)CC(N2CCC4(CCC(F)(F)CC4)C2)CC3)c2scc(C(=O)O)c2n1 (stereo not drawn) [Compound 170]
8 | < 0.1 µM | > 20 µM | > 20 µM | Cc1cc(-c2cc(Cl)ccc2OCCn2c(C)nc3c(c2=O)C[C@H](N(C)[C@H]2CC[C@](C)(O)CC2)CC3)c2scc(C(=O)NS(C)(=O)=O)c2n1 (single isomer, unassigned) [Compound 207]
9 | < 0.1 µM | < 5 µM | < 5 µM | Cc1cc(-c2cc(Cl)ccc2OCCn2c(C)nc3c(c2=O)CC(N2CCC(OC(F)(F)F)CC2)CC3)c2scc(C(=O)O)c2n1 (stereo not drawn) [Compound 178]
10 | < 0.1 µM | < 5 µM | < 5 µM | Cc1cc(-c2cc(Cl)ccc2OCCn2c(C)nc3c(c2=O)CC(N(C)Cc2ccc(C(F)(F)F)cc2)CC3)c2scc(C(=O)O)c2n1 (stereo not drawn) [Compound 201, 7-(5-chloro-2-(2-(2-methyl-6-(methyl(4-(trifluoromethyl)benzyl)amino)-4-oxo-5,6,7,8-tetrahydroquinazolin-3(4H)-yl)ethoxy)phenyl)-5-methylthieno[3,2-b]pyridine-3-carboxylic acid]
11 | < 0.1 µM | < 5 µM | < 5 µM | Cc1cc(-c2cc(Cl)ccc2OCCn2c(C)nc3c(c2=O)C[C@H](N2C[C@@H]4CC(F)(F)[C@@H]4C2)CC3)c2scc(C(=O)O)c2n1 (single isomer, unassigned) [Compound 146]
12 | < 0.1 µM | < 5 µM | < 5 µM | Cc1cc(-c2cc(Cl)ccc2OCCn2c(C)nc3c(c2=O)CC(N2CCC(C(F)(F)F)CC2)CC3)c2scc(C(=O)O)c2n1 (stereo not drawn) [Compound 163]
13 | 0.1 to 0.5 µM | 5 to 20 µM | > 20 µM | Cc1cc(-c2cc(Cl)ccc2OCCn2c(C)nc3c(c2=O)CC(N(C)CC2CC(F)(F)C2)CC3)c2scc(C(N)=O)c2n1 (stereo not drawn) [Compound 138]
14 | < 0.1 µM | > 20 µM | > 20 µM | Cc1cc(-c2cc(Cl)ccc2OCCn2c(C)nc3c(c2=O)C[C@H](N(C)[C@H]2CC[C@@](C)(O)C2)CC3)c2scc(C(=O)O)c2n1 (single isomer, unassigned) [Compound 183]
15 | < 0.1 µM | < 5 µM | < 5 µM | Cc1csc(CN(C)C2CCc3nc(C)n(CCOc4ccc(Cl)cc4-c4cc(C)nc5c(C(=O)O)csc45)c(=O)c3C2)n1 (stereo not drawn) [Compound 182]
16 | < 0.1 µM | > 20 µM | > 20 µM | Cc1cc(-c2cc(Cl)ccc2OCCn2c(C)nc3c(c2=O)CC(N2CCC(C)(O)CC2)CC3)c2scc(C(=O)O)c2n1 (stereo not drawn) [Compound 209]
